Here are results for five compounds from PMC6132687, “Stem cells are the most sensitive screening tool to identify toxicity of GATA4-targeted novel small-molecule compounds” (Archives of Toxicology, 2018).

For orientation: IC50 means the concentration at which inhibition is half-maximal.

Series [1] deals with mESC derivatives from day 5 embryoid bodies (D5EBs). In words: MTT assay in D5EBs. It is filed as cell-based, mouse. The conditions noted are these: 24 h. The method, then: (§1) The cells were exposed to the test compounds for 24 h and cytotoxicity was quantified with MTT and LDH assays as described previously (Talman et al. [2011]). For the determination of cell membrane integrity, 50 µl of medium from each well was transferred onto a new 96-well plate followed by addition of 50 µl of substrate solution containing 1.3 mM β-nicotinamide adenine dinucleotide, 660 µM iodonitrotetrazolium, 54 mM L(+)-lactic acid, 280 µM phenazine methosulphate and 0.2 M Tris–HCl (pH 8.0). After a 30-min incubation, the reaction was stopped by adding 50 µl of 1 M acetic acid to each well and absorbance was measured at 490 nm using Victor2 plate reader (PerkinElmer, Turku, Finland). Spontaneous LDH release was measured from untreated cells, maximal LDH release from cells lysed with 0.9% Triton X-100 and background absorbance was measured from wells without cells. After background extraction, cytotoxicity was calculated as follows: cytotoxicity (%) = [(sample − spontaneous LDH release)/(maximal LDH release − spontaneous LDH release)] × 100. For quantification of metabolic activity, 3-(4,5-dimethylthiazol-2-yl)-2,5-diphenyltetrazolium bromide (MTT) was added to the cells at a final concentration of 0.5 mg/ml followed by 2 h incubation in cell culture conditions. The medium was then aspirated and formazan crystals were solubilized in DMSO. Absorbance was measured at 550 nm and absorbance at 650 nm was subtracted as background.
Mouse embryonic stem cells (mESCs), embryoid bodies (EBs), and primary mouse embryonic fibroblasts (MEFs) were used for toxicity experiments. E14 mESCs were cultured in feeder-free conditions on plates coated with 0.1% gelatin in DMEM with 15% FBS, GlutaMax, MEM non-essential amino acids, 2-mercaptoethanol, and leukemia inhibitory factor (LIF). For toxicity assays, the cells were dissociated with TrypLe and plated at 5,000 cells/well in gelatin-coated 96-well plates 24 hours prior to compound exposures. To induce differentiation of mESCs, cells were plated on day 0 in 20 µl hanging drops at 25,000 cells/ml in inverted V-bottom plates in DMEM with 20% FBS and with all above supplements except LIF. On day 2 medium was added to EBs, and the EBs were dissociated with TrypLe and plated at 5,000 cells/well in gelatin-coated 96-well plates on day 5 and exposed to test compounds 24 later. Primary MEFs were cultured on 0.1% gelatin-coated plates in DMEM with 10% […]
(§2) 1640 without glucose with B-27 supplement in order to purify cardiomyocytes. From day 15 onwards the cells were maintained in RPMI 1640 supplemented with B-27 (RB+ins). Beating hiPSC-CMs were dissociated between days 15 and 22 by incubating them in cell dissociation solution containing 40% enzyme-free cell dissociation buffer, 40% RPMI 1640 and 20% trypsin-EDTA (final trypsin concentration 0.01%) for 7–8 min, whereafter the cells were collected and trypsin was inactivated in RB+ins supplemented with 10% FBS. After centrifugation the cells were suspended in RB+ins with 10% FBS containing 10 µM ROCK inhibitor and seeded at 15,000 cells/well (cytotoxicity assays) or 20,000 cells/well (high content analysis) in gelatin-coated 96-well plates. The cells were let to attach for 2 days at 37 °C in standard conditions, whereafter the compounds were added in RB+ins. In general, the differentiation yielded an almost pure (>95%) cardiomyocyte culture.
(§3) Syntheses and characterization of compounds
Materials and general procedures. […]
(In general: Formazan colour is commonly taken as a measure of viable cells.)

The next series deals with hiPSCs. In words: MTT assay in hiPSCs. In kind it is cell-based, human. The conditions noted are these: for IC50: Homo sapiens, 24-h exposure, read-out: IC50 (hiPSC viability). The method, then:
as §1, with “background. […]” for “background.”
Human pluripotent stem cells (hiPSCs): The iPS(IMR90)-4 line (Yu et al. 2007) was purchased from WiCell (Madison, Wisconsin, USA). The cells were cultured in Essential 8 ™ medium (E8) on 6-well plates coated with Matrigel® (1:50) and passaged 1:15 approximately every four days. The cells were dissociated using Versene®, resuspended in E8 containing 10 µM ROCK inhibitor (Y-27632) and seeded at 10,000 cells/well (cytotoxicity assays) or 5,000 cells/well (high-content imaging) in Matrigel®-coated 96-well plates. The cells were incubated overnight in standard conditions prior to compound addition. […]
as §2, §3
Materials and general procedures. All reagents were acquired from Sigma-Aldrich (Schnelldorf, Germany) and Enamine (Kiev, Ukraine), and were used without further purification. All reactions in anhydrous solvents were conducted in oven-dried glassware under anhydrous argon. Thin-layer chromatography (TLC) was performed using Silica Gel 60 F254 (Merck) and Silica Gel 60 NH2 F254s aluminium sheets (Merck), visualized by UV illumination and stained with ninhydrin in EtOH (1.5% w/v). Microwave reactions were performed with a Biotage Initiator+ Robot Eight microwave (Uppsala, Sweden). Column chromatography was performed with an automated high performance flash chromatography Biotage Sp4-system or with a Isolera Spektra One-system (Uppsala, Sweden) using a 0.1-mm path length flow cell UV-detector/recorder module (fixed wavelength 254 nm) for the […] or a variable UV-VIS (200-800 nm) photodiode array detector for the Isolera Spektra One- […]

As for `CCN(CC)c1ccc(NC(=O)c2c(-c3ccccc3)noc2C)cc1` [3i-1000], the “reduction in metabolic activity” value in series [1] (at ≥ 10 µM) is “moderate, but not statistically significant”. Besides, the IC50 with hiPSCs was 1460 nM. Further, in the series on hiPSCs (hiPSCs, 24 h, at ≥ 3 µM), the “reduction in cell viability” value is 93–94%.
In the case of `CCN(CC)c1ccc(NC(=O)c2c(C)noc2-c2cc(C)on2)cc1` [3i-1047], the reduction in viability in series [1] (30 µM) is listed as 38–45%; in the series on hiPSCs (hiPSCs, 24 h, 30 µM), 38–45%.
Consider `CCC(=O)N(Cc1ccc(N(CC)CC)cc1)c1c(-c2ccccc2)noc1C` [3i-1120], for which the “sensitivity of cell type to compound (viability)” value (from here on “sensitivity of cell type”) in series [1] is given as “sensitive”; in the series with hiPSCs (hiPSCs, 24 h), “sensitive”. For the same compound, the IC50 in the series with hiPSCs came out at 600 nM.
Regarding `CCN(CC)c1ccc(NC(=O)c2cc(C)oc2-c2ccccc2)cc1` [3i-1148], the “sensitivity of cell type” value in series [1] is reported as “sensitive”; in the series on hiPSCs (hiPSCs, 24 h), “sensitive”. In addition, the IC50 in the series with hiPSCs stood at 300 nM.
For the compound `COc1ccc(-c2cc(N)nn2C(=O)c2c(-c3ccccc3)noc2C)cc1` [3i-1229], the “sensitivity of cell type” value is recorded as “sensitive” in series [1] and “sensitive” in the series on hiPSCs (hiPSCs, 24 h). Also, the IC50 with hiPSCs came out at 2070 nM.
